Measured values as given in patent US20080260720A1, “Systems and Methods for Inhibiting Metastasis” (priority 2004, published 2008).

Assays:
Format in all cases: cell-based
[1] = tested on: MB-MDA-435 breast cancer cells expressing E-cadherin; experiment: Wound-filling (cell migration) assay, G12-stimulated cell escape; conditions: MB-MDA-435 cells with E-cadherin and mutationally-activated Gα12; free-migrating cells 39 h after wounding
Protocol: To determine whether G12 proteins could influence cadherin-mediated suppression of cell migration, wound-filling assays using MB-MDA-435 breast cancer cells expressing E-cadherin were conducted. This system is believed to mimic the escape of potentially metastatic cells from the primary tumor. When a monolayer of cells was wounded by scraping, MB-MDA-435 cells lacking E-cadherin (435-puro) frequently broke free from the advancing “wall” of cells and migrated into the wound area as lone or “free migrating” cells.
Wound-filling assays were performed using MB-MDA-435 cells harboring E-cadherin (435-E-cad) or a control plasmid (435-puro), that were infected 40 h earlier with recombinant adenoviruses expressing either mutationally-activated Gα12 (12^QL) or mutationally-activated Gαi2 (control). Cells were visualized by fluorescence microscopy for GFP expression (indicative of successful adenovirus infection). Cells were photographed at time of initial wounding, performed by scraping cell monolayers with a pipette tip and marling the wounded areas for orientation. Marked areas were re-photographed 39 h after wounding (lower panels). […] Data from 5 randomly selected view fields are presented as mean ±S.E. for each condition. E-cadherin lacking the G12-interacting region fails to suppress cell migration. […]

MB-MDA-231 cell line = experiment: Matrigel invasion assay, MB-MDA-231; conditions: 50 nM thrombin, 24 hrs, MB-MDA-231 cells, Cyquant quantification
Protocol: (§1) To examine the role of G12/13 in breast cancer invasion, the Matrigel (BD biosciences) invasion assay was used. In this assay, transwell migration chambers are coated with Matrigel, an artificial extracellular matrix believed to closely resemble basal lamina in structure and content. Cells are then plated on top of this matrix and allowed to invade the matrigel and migrate to the underside of the membrane. The cells that reach the underside of the membrane are then quantified as a measure of invasiveness. This system serves as a model for primary tumor invasion, as the matrix mimics the microenvironment through which the cancer cells must pass in order to metastasize.
(§2) MB-MDA-231 and MCF-7 cells were plated on top of a Matrigel (BD Biosciences) coated polycarbonate filter (8.0 μM pore). The filter was transferred to a chamber containing 0.1% BSA-DMEM and the cells were allowed to adhere for 1 hr. The cells were then stimulated with 50 nM thrombin. After 24 hrs, the cells were detached from the underside of the filter and quantified using the Cyquant (Molecular Probes) cell enmieration kit. […] Using retrovirus, stable MB-MDA-231 cell lines expressing p115RGS, RGS2 (see text) or the appropriate vector control were generated. Invasion assays were then preformed as in (a) using these cells.

MCF-7 cell line = experiment: Matrigel invasion assay, MCF-7; conditions: 50 nM thrombin, 24 hrs, MCF-7 cells, Cyquant quantification
Protocol: as §1, §2

Compound	effect on the G12-stimulated cell escape [1]	invasion through Matrigel (MB-MDA-231 cell line)	invasion through Matrigel (MCF-7 cell line)
C[C@@H](N)[C@H]1CC[C@H](C(=O)Nc2ccncc2)CC1 [Y27632]	no effect	–	–
thrombin	–	stimulates invasion	not
